Experimental data as given in patent publication EP0369810A2, “PAF antagonists as anti-hyperendothelinemia agents” (Takeda Chemical Industries, Ltd., priority 1988, dated 1990).
Where two headings read alike, the source gives them in different places. Marks after values point to notes of the source that are not given here.

Columns and labels:
[1] = tested on: cultured rat vascular smooth muscle cells; assay: Inhibition of endothelin-induced elevation of cytosolic calcium concentration (fura-2 fluorescence); format: cell-based; conditions: endothelin 4 x 10-^9 M, read-out: Inhibitory activity (%); for inhibition at 0.4 µM: compound 4 x 10^-7 M; for inhibition at 0.04 µM: compound 4 x 10^-8 M; for inhibition at 4 µM: compound 4 x 10^-6 M
Protocol: A glass cover slide coated with 4 µM fura-2-loaded cultured rat vascular smooth muscle cells was inserted into a quartz cuvette which contained 2.5 ml HEPES buffer (pH 7.2). On this occasion, the glass cover slide was fixed on a diagonal of 45° to the direction of excitation light. The fluoroscence was measured in a Hitachi F-4000 spectrofluorimeter. Wavelengths were set at 340 nm and 380 nm for excitation and 505 nm for emission. Fmax and Fmin were estimated after addition of ionomycin (2 µM; Calbiochem) as calcium ionophore and EGTA (8 mM) as calcium ion-chelator, respectively. The cytosolic calcium ion concentration [Ca^++]i values were calculated by Tsien et al. formula: [Ca^++]-i = kd*(F-Fmin)/(Fmax-F) with modifications assuming kd = 224 nM, i.e. by the formulas: • [Ca^++]i = kd*(R-Rmin)*Sf2/(Rmax-R)*Sb2 • R = [D(W1)-AutoF1]/[D(W2)-AutoF2] • D(Wi) : Determined value at wavelength for excitation W1 • D(W2) : Determined value at wavelength for excitation W2 • AutoF1 : self-fluoroscence at W1 • AutoF2 self-fluoroscence at W2 • Rmin : R in zero Ca^++ = Fmin (W1)/Fmin (W2) • Rmax : R in Ca^++-saturated concentration = Fmax (W1)/Fmax (W2) • Sf2 : strength of fluoroscence by free Ca^++ at W2 • Sb2 : strength of fluoroscence by bound Ca^++ at W2 The experiments were carried out as follows: PAF antagonists, the compounds [II], [IV] and [Vllla], were added to the solution in the cuvette. Incubation was conducted for 5 minutes and then endothelin (4 x 10-^9 M) was added to observe changes of strength of fluoroscence.

[2] = tested on: endothelin; assay: Protective effects against endothelin-induced death in rats; format: in vivo; conditions: rat, survival 1 h after endothelin
Protocol: (§1) Male SD-Jcl rats (5-6 weeks old) and male Jcl-ICR mice (5-6 weeks 01 d) were used without anesthetization.
(§2) Physiological saline or drug-dissolved physiological saline was given via the tail vein to a rat in a volume of 1 ml/kg and to a mouse in a volume of 5 ml/kg. Five minutes later, the same volume of endothelin (Peptide Institute; 5 nmol/kg)-dissolved physiological saline was intravenously given.
(§3) In the case of oral administration of a drug, the drug was given in 10 ml/kg of 5% gum arabic suspension one hour before the administration of endothelin.
(§4) One hour after the administration of endothelin, the survival rates were measured, and the effect of the drug was evaluated.

[3] = tested on: endothelin; assay: Protective effects against arrhythmia-inducing activity of endothelin in rats (electrocardiogram); format: in vivo, rat; conditions: anesthetized rats; for PVB counts (15 min.): premature ventricular beats; for VF incidence: ventricular fibrillation; for VT incidence: ventricular tachycardia
Protocol: Male SD-Jcl rats (9 weeks old) were anesthetized with pentobarbital (50 mg/kg, intraperitoneal injection), and electrocardiogram (Lead II) was monitored on a polygraph. A drug was dissolved in physiological saline and given via the tail vein in a volume of 1 ml/kg. Five minutes later, endothelin (5 nmol/kg) was intravenously administered. In the case of oral administration, a drug was given in 10 ml/kg of 5% gum arabic suspension one hour before the administration of endothelin.

[4] = Acute toxicities; conditions: rat, in vivo
Protocol: PAF antagonists were administered to male Wistar rats (4-6 weeks old) to observe the acute toxicities.

[5] = tested on: endothelin; assay: Protective effects against endothelin-induced death in mice; format: in vivo; conditions: mouse, survival 1 h after endothelin
Protocol: as §1, §2, §3, §4

[6] = tested on: M-SHRsp; assay: Protective action on ischemic cerebral damage in M-SHRsp (bilateral carotid occlusion and reperfusion); format: in vivo, rat; conditions: 24 hour reperfusion
Protocol: Male malignant spontaneously hypertensive rats (M-SHRsp), 8 weeks old, were used. The carotid artery was occluded bilaterally for 1 hour under conscious condition followed by reperfusion for 24 hours. The drug was orally given 1 hour prior to the occlusion of the artery. The survival rate of rats was estimated during the 24 hour reperfusion.

[7] = tested on: glomerulonephritic rats; assay: Antiproteinuric action in glomerulonephritic rats; format: in vivo, rat; conditions: urinary excretion; 100 mg/kg p.o. once a day for 4 weeks
Protocol: Glomerulonephritis in rats was prepared according to the method by Nagamatsu et al. (Folia Pharmacol. Jpn. 78, 491, 1981). The mixture of 3 mg rabbit serum albumin (RSA) and the same amount of complete Freund's adjuvant was prepared. One ml/rat (3 mg/rat) of the mixture was first injected subcutaneously to 5 weeks old Spraque Dawley (Jcl) rats. 2 weeks later, RSA (1 mg/rat) was injected intravenously 3 times a week for 8 weeks. At the point of RSA injection for the first 4 weeks, urine was collected from the rat for 24 hours to measure urinary excretion of albumin and total protein. According to the value of albumin and total protein obtained, the rats were separated into 2 groups of the control and the treatment group. Then, the drug or vehicle was orally given once a day for 4 weeks and the 24 hour-urine at the 4 week of the dosage was collected for measurement of urinary albumin and total protein.

[8] = tested on: Male Spraque Dawley (Jcl) rats; assay: Effect on acute renal failure in rats (bilateral renal artery occlusion and reperfusion); format: in vivo, rat; conditions: oral dose of 30 mg/kg 1 hour prior to occlusion; 45 min occlusion, 20 hours reperfusion
Protocol: Male Spraque Dawley (Jcl) rats, 5 weeks old, were anesthetized with sodium pentobarbital (50 mg/kg, i.p.) and the renal artery was occluded bilaterally for 45 minutes followed by reperfusion for 20 hours. The blood was collected from the abdominal aorta under anesthesia for measurement of blood urea nitrogen (BUN).

[9] = sustained increase of cytosolic calcium
[10] = transient increase of cytosolic calcium
[11] = 3 mg/kg i.v. 5 min before endothelin 5 nmol/kg i.v.
[12] = 1 mg/kg i.v. 5 min before endothelin 5 nmol/kg i.v.
[13] = 100 mg/kg p.o. 1 h before endothelin 5 nmol/kg i.v.
[14] = 30 mg/kg p.o. 1 h before endothelin 5 nmol/kg i.v.
[15] = 30 mg/kg i.v. 5 min before endothelin 5 nmol/kg i.v.

## CCCCCCCCCCCCCCCCCCNC(=O)OCC(COC(=O)N(Cc1cccc[n+]1CC)C(C)=O)OC.[Cl-] (stereo not drawn) [Compd [II], 2-[N-acetyl-N-(2-methoxy-3-octadecylcarbamoyloxypropoxycarbonyl)-aminomethyl]-1-ethylpyridinium chloride]
[1]; [9]
  inhibition at 0.4 µM: 100%
  inhibition at 0.04 µM: 100%
[1]; [10]
  inhibition at 4 µM: 100%
  inhibition at 0.4 µM: 100%
[2]; [11]
  Protective effect to death Survival Rate (%): 94** %
  Protective effect to death Survival Total: 15/16
[3]; [12]
  PVB counts (15 min.): 9±8
  VF incidence: 2/9**
  VT incidence: 3/9**
[4]; iv, male Wistar rats
  LD50: > 20 mg/kg
[5]; [11]
  Protective effect to death Survival Rate (%): 100** %
  Protective effect to death Survival Total: 10/10

## COc1cc2c(cc1OC)CCCC(C(=O)N1CCN(C(=O)c3cc(OC)c(OC)c(OC)c3)CC1)=C2 [Compd [IV], 1-(2,3-dimethoxy-6,7-dihydro-5H-benzocycloheptenyl-8-carbonyl)-4-(3,4,5-trimethoxybenzoyl)piperazine]
[1]; [9]
  inhibition at 0.4 µM: 52.6%
[1]; [10]
  inhibition at 0.4 µM: 76.2%
[6]; 1 mg/kg p.o. 1 hour prior to occlusion
  Survival rate (24 hr): 2/7
[6]; 10 mg/kg p.o. 1 hour prior to occlusion
  Survival rate (24 hr): 6/7*
[6]; 10 mg/kg p.o. 1 hour prior to occlusion, listed as compound [IV]
  Survival rate (24 hr): 6 out of 7
[6]; 100 mg/kg p.o. 1 hour prior to occlusion
  Survival rate (24 hr): 4/4*
[6]; 100 mg/kg p.o. 1 hour prior to occlusion, listed as compound [IV]
  Survival rate (24 hr): all out of 4
[7]
  albumin: 17 ± 11 mg/100 g/24 hr
  total protein: 43 ± 16 mg/100 g/24 hr
[4]; po
  LD50: > 1000 mg/kg
[5]; [13]
  Protective effect to death Survival Rate (%): 100** %
  Protective effect to death Survival Total: 15/15

## Cc1nnc2n1-c1sc(CCC(=O)N3CCOCC3)cc1C(c1ccccc1Cl)=NC2 [Compd [IX], reference compound]
[2]; [14]
  Protective effect to death Survival Rate (%): 40** %
  Protective effect to death Survival Total: 6/15
[3]; [14]
  PVB counts (15 min.): 12±5
  VF incidence: 4/6**
  VT incidence: 4/6**
[5]; [14]
  Protective effect to death Survival Rate (%): 53** %
  Protective effect to death Survival Total: 8/15

## CCC[n+]1cc(Br)cc(C(=O)N(CCC(=O)NCCOC(=O)N2CCc3ccccc3C2)c2ccccc2)c1 [Compd [VIIIb]]
[8]
  Blood urea nitrogen (BUN): 88 ± 2 mg/dL

## CCCCCCCCCCCCCCCCCCNC(=O)OCC(COP(=O)([O-])OCC[n+]1ccsc1)OC (stereo not drawn) [Compd [VI], 3-(N-n-octadenylcarbamoyloxy)-2-methoxypropyl 2-thiazolioethyl phosphate]
[4]; iv, male Wistar rats
  LD50: > 50 mg/kg
[5]; [15]
  Protective effect to death Survival Rate (%): 36* %
  Protective effect to death Survival Total: 5/14

## CCC[n+]1cc(Br)cc(C(=O)N(CCC(=O)NCCOC(=O)N2CCc3ccccc3C2)c2ccccc2)c1 [[VIIIa]]
[1]; [9]
  inhibition at 0.4 µM: 100%
  inhibition at 0.04 µM: 72.1%
[1]; [10]
  inhibition at 4 µM: 78.2%
  inhibition at 0.4 µM: 64.2%
